Reference: patent US9757375B2, “Compounds that inhibit human DNA ligases and methods of treating cancer” (University of Maryland, Baltimore, priority 2007, dated 2017)

What follows are compounds tested against T1, T4 DNA ligase (Enterobacteria phage T4, UniProt P00970) (assay: High-throughput fluorescence-based DNA joining assay, non-specific inhibitor control). Settings: 100 μM; read-out: In vitro % inhib T4 100.
T1 construct: purchased NEB
T1 sequence (P00970 1-487): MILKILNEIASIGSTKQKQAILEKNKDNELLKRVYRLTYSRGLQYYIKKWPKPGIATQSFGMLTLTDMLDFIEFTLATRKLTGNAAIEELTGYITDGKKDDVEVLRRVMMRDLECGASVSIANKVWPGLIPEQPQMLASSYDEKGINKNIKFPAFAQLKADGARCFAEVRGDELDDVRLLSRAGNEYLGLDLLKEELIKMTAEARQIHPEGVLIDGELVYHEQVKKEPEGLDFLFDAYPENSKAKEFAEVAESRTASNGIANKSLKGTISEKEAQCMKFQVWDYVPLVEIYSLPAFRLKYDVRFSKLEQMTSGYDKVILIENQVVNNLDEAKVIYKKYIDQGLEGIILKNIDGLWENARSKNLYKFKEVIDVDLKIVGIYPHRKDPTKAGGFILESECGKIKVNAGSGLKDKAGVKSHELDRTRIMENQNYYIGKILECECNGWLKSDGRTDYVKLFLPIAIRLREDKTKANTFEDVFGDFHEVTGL
Type: biochemical, bacteriophage T4
Procedure, shortened: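 This counter-screen used a FRET-based DNA joining assay. Duplicate reactions held 10 pmol nicked DNA substrate and 10 units T4 DNA ligase, with or without 100 μmol/L compound. T4 ligase lacks the DNA-binding domain targeted in silico, so compounds inhibiting it were flagged as non-specific, likely DNA-binding.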

Compound | inhibition at 100 µM [%]
CCCCC(=O)c1ccc(O)cc1O [Compound 213] | 0
Cc1oc(C(=O)O)cc1CSCc1cc(C(=O)O)c(C)o1 [Compound 197] | 24 ± 6
O=C(O)CSc1cc(Cl)c2nonc2c1[N+](=O)[O-] [Compound 64] | 18 ± 8
C/C(O)=C1/C(=O)N(c2nc3ccccc3s2)N=C1c1ccccc1 [Compound 43] | 0
Cc1c(Br)cc(NCC(=O)N/N=C\c2cc([N+](=O)[O-])ccc2O)cc1Br [Compound 67] | 0

Same assay, conditions: in vitro screen, 100 μmol/L

Compound | inhibition of T4 DNA ligase, in words
Cc1c(Br)cc(NCC(=O)N/N=C\c2cc([N+](=O)[O-])ccc2O)cc1Br [Compound 67] | inhibit hLigI but not T4 DNA ligase

Same assay, conditions: read-out: % activity Inhibition LigT4 100 uM

Compound | inhibition at 100 µM [%]
Cc1oc(C(=O)O)cc1CSCc1cc(C(=O)O)c(C)o1 [Compound 197] | 24.4 ± 5.8
O=C(O)CSc1cc(Cl)c2nonc2c1[N+](=O)[O-] [Compound 64] | 18.4 ± 8.4
C/C(O)=C1/C(=O)N(c2nc3ccccc3s2)N=C1c1ccccc1 [Compound 43] | 0
Cc1c(Br)cc(NCC(=O)N/N=C\c2cc([N+](=O)[O-])ccc2O)cc1Br [Compound 67] | 0

The compounds below were run on DNA (assay: DNA binding by displacement of ethidium bromide from DNA). Settings: EtBr replacement assay; 192 at 0, 50, 100 μM.
Method: Candidate ligase inhibitors identified by CADD were assayed for their ability to inhibit hLigI and T4 DNA ligase using a high-throughput, fluorescence energy transfer-based DNA joining assay (22). Duplicate reactions (30 μL) containing 10 pmol of nicked DNA substrate and either 0.25 pmol of hLigI or 10 units of T4 DNA ligase were incubated in the presence or absence of 100 μmol/L of the putative inhibitor. DNA binding by the candidate DNA ligase inhibitors was measured by displacement of ethidium bromide from DNA as previously described (30).

Compound | DNA binding of compound (effect on DNA binding by ethidium bromide)
Cc1c(Br)cc(NCC(=O)N/N=C\c2cc([N+](=O)[O-])ccc2O)cc1Br [Compound 67] | had no effect on DNA binding by ethidium bromide

Each compound was assayed on HCT116 cells (assay: Cell proliferation screen (SYBR Green, Biomek FX)). Settings: 50 μM.
Type: cell-based, human
Method: (§1) The ability of the compounds identified by CADD to inhibit proliferation of normal mammary epithelial MCF10A cells and colon carcinoma HCT116 cells was determined using a Biomek FX Laboratory Automation Workstation (Beckman Coulter, Inc., Fullerton, Calif.). On day 0, 20 μl of complete medium containing the appropriate number of cells (150-300) was plated per well of a 384-well tissue plate (Fisher Scientific, Hampton, N.H.) and incubated overnight at 37° C. with 5% CO2 and 90% humidity. Next day, day 1, compounds were prepared by serial dilution with complete medium to yield the concentration 100 μM, and 20 μl was added to each well containing 20 μl of medium and cells yielding the final concentration 50 μM in 40 μl volume. Plates were incubated for additional 3 days (days-2-5) until control cells (0.5% DMSO) reached ˜70-80% confluency. On day 6, 40 μl of lysis/detection solution containing 1.2% Igepal CA-630 (Sigma) and a 1:1000 dilution of SYBR Green I nucleic acid stain (Molecular Probes, Eugene, Oreg.) was added to each well. Following an overnight incubation at 37° C., total fluorescence was measured using a Fluorostar Galaxy plate reader with a 485 nm excitation filter and 520 nm emission filter set (BMG Labtech, Inc., Durham, N.C.). Data was exported to a custom program that determined growth inhibition by dividing each individual fluorescence value by the average of fluorescence values obtained with cells treated with DMSO alone.
(§2) The 192 human DNA ligase inhibitors were screened in parallel for effects on proliferation and the ability to potentiate the effects of several DNA damaging agents using two cell human lines, a colon cancer line HCT116 and a normal breast epithelial cell line MCF10A using a Biomek FX Laboratory Automation Workstation as described (23). The DNA damaging agents used, methyl methanesulfonate (MMS), camptothecin, cis-platinum, 3 aminobenzamide and ionizing radiation, are representatives of classes of agents used to treat cancer. Briefly, HCT116 and MCF10A cells were plated in 96 well plates such that the cultures were about 80% confluent after 5 days incubation. Compounds were added to the cultures at either 15 μM or 50 μM 1 day after plating. After incubation for 3 days, cell lysed in a solution containing 1.2% Igepal CA-630 and SYBR green that stains DNA (1:1000, Molecular Probes, Eugene, Oreg.). Subsequently, fluorescence was measured per well. The studies with DNA damaging agents were performed as follows. […] For ionizing radiation, cells were pre-incubated with the compounds at 50 μM for 1 hour prior to exposure to 2 gray of ionizing radiation. Cultures were incubated for 3 days and then treated as above.

Compound | In vitro growth inhb HCT116 % Inhb at 50 (μM) [%]
CCCCC(=O)c1ccc(O)cc1O [Compound 213] | 70
C/C(O)=C1/C(=O)N(c2nc3ccccc3s2)N=C1c1ccccc1 [Compound 43] | 70
Cc1c(Br)cc(NCC(=O)N/N=C\c2cc([N+](=O)[O-])ccc2O)cc1Br [Compound 67] | 70

Same assay, conditions: 50 μM; percentage of values obtained with DMSO alone

Compound | Growth_Inh % (50 μM) HCT116 [%]
O=C1Nc2ccccc2Oc2cc([N+](=O)[O-])cc([N+](=O)[O-])c21 [Compound 180] | 70
Cc1c(Br)cc(NCC(=O)N/N=C\c2cc([N+](=O)[O-])ccc2O)cc1Br [Compound 67] | 70

Same assay, conditions: Homo sapiens, HCT-116; read-out: % growth inhibition HCT116 50 uM

Compound | inhibition at 50 µM [%]
CCCCC(=O)c1ccc(O)cc1O [Compound 213] | 70
O=C(O)CSc1cc(Cl)c2nonc2c1[N+](=O)[O-] [Compound 64] | 70
C/C(O)=C1/C(=O)N(c2nc3ccccc3s2)N=C1c1ccccc1 [Compound 43] | 70
Cc1c(Br)cc(NCC(=O)N/N=C\c2cc([N+](=O)[O-])ccc2O)cc1Br [Compound 67] | 70

What follows are compounds tested on MCF10A cells (assay: Cell proliferation screen (SYBR Green, Biomek FX)). Settings: 50 μM; percentage of values obtained with DMSO alone.
Type: cell-based, human
Method: as §1, §2

Compound | Growth_Inh % (50 μM) MCF10A [%]
O=C1Nc2ccccc2Oc2cc([N+](=O)[O-])cc([N+](=O)[O-])c21 [Compound 180] | 70
O=C(O)CSc1cc(Cl)c2nonc2c1[N+](=O)[O-] [Compound 64] | 40
Cc1c(Br)cc(NCC(=O)N/N=C\c2cc([N+](=O)[O-])ccc2O)cc1Br [Compound 67] | 70

Same assay, conditions: Homo sapiens, MCF-10A; 50 μM; read-out: In vivo growth inhb MCF10A % Inhb at 50

Compound | inhibition at 50 µM [%]
CCCCC(=O)c1ccc(O)cc1O [Compound 213] | 70
O=C(O)CSc1cc(Cl)c2nonc2c1[N+](=O)[O-] [Compound 64] | 40
C/C(O)=C1/C(=O)N(c2nc3ccccc3s2)N=C1c1ccccc1 [Compound 43] | 70
Cc1c(Br)cc(NCC(=O)N/N=C\c2cc([N+](=O)[O-])ccc2O)cc1Br [Compound 67] | 70

Same assay, conditions: Homo sapiens, MCF-10A; read-out: % growth inhibition MCF10A 50 uM

Compound | inhibition at 50 µM [%]
CCCCC(=O)c1ccc(O)cc1O [Compound 213] | 70
O=C(O)CSc1cc(Cl)c2nonc2c1[N+](=O)[O-] [Compound 64] | 40
C/C(O)=C1/C(=O)N(c2nc3ccccc3s2)N=C1c1ccccc1 [Compound 43] | 70
Cc1c(Br)cc(NCC(=O)N/N=C\c2cc([N+](=O)[O-])ccc2O)cc1Br [Compound 67] | 70

Each compound was assayed on HCT116 and MCF10A cells (assay: Cell proliferation screen, result stated for one or both cell lines). Settings: in vivo cell culture screen.
Type: cell-based, human
Method: as §1, §2

Compound | inhibition of cell proliferation, in words
CCCCC(=O)c1ccc(O)cc1O [Compound 213] | inhibited cell proliferation
O=C(O)CSc1cc(Cl)c2nonc2c1[N+](=O)[O-] [Compound 64] | inhibited cell proliferation
C/C(O)=C1/C(=O)N(c2nc3ccccc3s2)N=C1c1ccccc1 [Compound 43] | inhibited cell proliferation
Cc1c(Br)cc(NCC(=O)N/N=C\c2cc([N+](=O)[O-])ccc2O)cc1Br [Compound 67] | inhibited cell proliferation

What follows are compounds tested on MCF7, HCT116, HeLa, and MCF10A cells (assay: Survival assay on cell panel (FIG. 9)). Settings: Homo sapiens; cell line not stated.
Type: cell-based, human
From the text: FIG. 9. […] A, effect of L67 (left) and L189 (right) on the survival of MCF7 (Δ), HCT116 (□), HeLa (⋄), and MCF10A (upsidedown triangle) cells. B, normal breast epithelial MCF10A cells (open symbols) and breast cancer MCF7 cells (filled symbols) in the absence (circles) or presence of 3 μmol/L of L67 (squares) were exposed to increasing concentrations of MMS (left). Normal breast epithelial MCF10A cells (open symbols) and colon cancer HCT116 cells (filled symbols) in the absence (circles) or presence of 20 μmol/L of L189 (squares) were exposed to increasing doses of ionizing radiation (right). C, hLigI (I), hLigIIIα (III), and hLigIV (IV) were detected in extracts (400 μg) of the indicated cell lines by immunoblotting. To control for extract loading β-actin was also detected by immunoblotting.
For survival assays, cells were plated in 6 well plates and grown either in the absence or presence of ligase inhibitors. Where indicated, either MMS (0-50 μM) was added to the medium or the cells were irradiated in a Cs-137 irradiator (0-2.5 Gy). After two weeks, colonies were stained with crystal violet (Sigma) and then counted.

Compound | EC50 [µM]
O=C(O)CSc1cc(Cl)c2nonc2c1[N+](=O)[O-] [Compound 64] | ~50
Cc1c(Br)cc(NCC(=O)N/N=C\c2cc([N+](=O)[O-])ccc2O)cc1Br [Compound 67] | ~10

Same assay, conditions: L67 3 μmol/L with MMS (MCF7 vs MCF10A); L189 20 μmol/L with ionizing radiation (HCT116 vs MCF10A), FIG. 9B

Compound | potentiation of the cytotoxic effects of DNA-damaging agents
Cc1c(Br)cc(NCC(=O)N/N=C\c2cc([N+](=O)[O-])ccc2O)cc1Br [Compound 67] | potentiate the cytotoxic effects of DNA-damaging agents

Same assay, conditions: MCF7, HCT116, HeLa, MCF10A, FIG. 9A

Compound | cytotoxicity (cell survival)
Cc1c(Br)cc(NCC(=O)N/N=C\c2cc([N+](=O)[O-])ccc2O)cc1Br [Compound 67] | cytotoxic

Same assay, conditions: cell line not stated

Compound | cell survival: remark in words
Cc1oc(C(=O)O)cc1CSCc1cc(C(=O)O)c(C)o1 [Compound 197] | no activity
